Test results published in patent US10807992B2, “Single enantiomer antiparasitic compounds” (priority 2017, dated 2020).

Tests used:
Ctenocephalides felis [1] = experiment: In vitro ingestion activity against fleas (artificial feeding, bovine blood); settings: for mortality at 0.003 ppm: Trial 3, dose 0.003 ppm; for mortality at 0.012 ppm: Trial 3, dose 0.012 ppm; for mortality at 0.049 ppm: Trial 3, dose 0.049 ppm; for mortality at 0.2 ppm: Trial 3, dose 0.20 ppm; for mortality at 0.78 ppm: Trial 3, dose 0.78 ppm; for mortality at 3.125 ppm: Trial 3, dose 3.125 ppm; for mortality at 12.5 ppm: Trial 3, dose 12.5 ppm; for mortality at 50 ppm: Trial 3, dose 50 ppm
Experimental: (§1) Ctenocephalides felis (Avista Pharma, Inc., RTP, NC), 1-7days post hatch, held in an environmental chamber at 24° C., 85% humidity.
For flea ingestion tests, serial dilutions of the compound stock were performed using DMSO to achieve the desired range for EC50 and EC90 determination. An aliquot of each compound dilution was added to organic bovine blood with a final DMSO concentration of 0.5% and placed in an artificial feeding container.
(§2) Compounds tested were C1 racemate, the C1 (R) enantiomer, and the C1 (S) enantiomer. For Trial 3, the C1 (R) enantiomer and the C1 (S) enantiomer were further chiral purified to achieve >99% purity.
(§3) For both contact and ingestion assays, ten newly emerged unfed adult fleas, 0-7 days old Ctenocephalides felis, from a laboratory colony, were aspirated into each vial or cage. The test vials for contact assays were held in an environmental chamber at 24° C., 80% humidity with light/dark cycles (12 hours each). The cages for flea ingestion assays were held in a temperature-controlled artificial feeding apparatus to allow continual access to organic bovine blood containing the desired concentration of compound. Fresh aliquots of compound-spiked bovine blood were provided daily for the duration of the study.
(§4) Fleas were evaluated for percent mortality at various time points between 2 hours and 48 hours post infestation. Fleas showing normal movement and/or jumping ability were considered viable and those showing no movement after tapping the vials were scored as dead.

Ctenocephalides felis [2] = experiment: In vitro contact activity against fleas (coated substrate); settings: for mortality at 0.006 ppm: Trial 3, dose 0.006 ppm; for mortality at 0.024 ppm: Trial 3, dose 0.024 ppm; for mortality at 0.098 ppm: Trial 3, dose 0.098 ppm; for mortality at 0.39 ppm: Trial 3, dose 0.39 ppm; for mortality at 1.56 ppm: Trial 3, dose 1.56 ppm; for mortality at 6.25 ppm: Trial 3, dose 6.25 ppm; for mortality at 25 ppm: Trial 3, dose 25 ppm; for mortality at 100 ppm: Trial 3, dose 100 ppm
Experimental: as §1
For flea contact tests, vial caps were pre-drilled with a single hole in the center of each cap to allow air exchange. A filter paper (Whatman Grade 540 2.1 cm) was placed in the lid of each vial. Pipe cleaners cut to 0.5 inches were inserted in each test vial. An aliquot was taken from each compound stock and added to an acetone/triton solution to achieve the desired top concentrations for the study. Serial dilutions were conducted from the top dose (i.e. 100 ppm) to achieve the desired concentration for EC50 and EC90 determination. The final DMSO concentration was 0.5%. A 75 μL aliquot of each compound formulation was added to each 0.5 inch pipe cleaner contained in the treatment vial. The vials were loosely capped and allowed to dry for a minimum of four hours in a chemical fume hood.
as §2, §3, §4

O=C(CC(F)(F)F)N1CC2(C1)OCc1cc(C3=NS[C@@](c4cc(Cl)c(F)c(Cl)c4)(C(F)(F)F)C3)ccc12 [C1 (S) enantiomer, (S)-1-[6-[5-(3,5-dichloro-4-fluoro-phenyl)-5-(trifluoromethyl)-4H-isothiazol-3-yl]spiro[1H-isobenzofuran-3,3′-azetidine]-1′-yl]-3,3,3-trifluoro-propan-1-one]
mortality at 0.003 ppm (Ctenocephalides felis [1]; 6 h, Rep1): 0% | mortality at 0.003 ppm (Ctenocephalides felis [1]; 6 h, Rep2): 0% | mortality at 0.012 ppm (Ctenocephalides felis [1]; 6 h, Rep1): 0% | mortality at 0.012 ppm (Ctenocephalides felis [1]; 6 h, Rep2): 0% | mortality at 0.049 ppm (Ctenocephalides felis [1]; 6 h, Rep1): 0% | mortality at 0.049 ppm (Ctenocephalides felis [1]; 6 h, Rep2): 0% | mortality at 0.2 ppm (Ctenocephalides felis [1]; 6 h, Rep1): 10% | mortality at 0.2 ppm (Ctenocephalides felis [1]; 6 h, Rep2): 20% | mortality at 0.78 ppm (Ctenocephalides felis [1]; 6 h, Rep1): 80% | mortality at 0.78 ppm (Ctenocephalides felis [1]; 6 h, Rep2): 70% | mortality at 3.125 ppm (Ctenocephalides felis [1]; 6 h, Rep1): 100% | mortality at 3.125 ppm (Ctenocephalides felis [1]; 6 h, Rep2): 60% | mortality at 12.5 ppm (Ctenocephalides felis [1]; 6 h, Rep1): 100% | mortality at 12.5 ppm (Ctenocephalides felis [1]; 6 h, Rep2): 100% | mortality at 50 ppm (Ctenocephalides felis [1]; 6 h, Rep1): 100% | mortality at 50 ppm (Ctenocephalides felis [1]; 6 h, Rep2): 100% | mortality at 0.003 ppm (Ctenocephalides felis [1]; 24 h, Rep1): 0% | mortality at 0.003 ppm (Ctenocephalides felis [1]; 24 h, Rep2): 0% | mortality at 0.012 ppm (Ctenocephalides felis [1]; 24 h, Rep1): 0% | mortality at 0.012 ppm (Ctenocephalides felis [1]; 24 h, Rep2): 0% | mortality at 0.049 ppm (Ctenocephalides felis [1]; 24 h, Rep1): 20% | mortality at 0.049 ppm (Ctenocephalides felis [1]; 24 h, Rep2): 10% | mortality at 0.2 ppm (Ctenocephalides felis [1]; 24 h, Rep1): 10% | mortality at 0.2 ppm (Ctenocephalides felis [1]; 24 h, Rep2): 50% | mortality at 0.78 ppm (Ctenocephalides felis [1]; 24 h, Rep1): 100% | mortality at 0.78 ppm (Ctenocephalides felis [1]; 24 h, Rep2): 90% | mortality at 3.125 ppm (Ctenocephalides felis [1]; 24 h, Rep1): 100% | mortality at 3.125 ppm (Ctenocephalides felis [1]; 24 h, Rep2): 80% | mortality at 12.5 ppm (Ctenocephalides felis [1]; 24 h, Rep1): 100% | mortality at 12.5 ppm (Ctenocephalides felis [1]; 24 h, Rep2): 100% | mortality at 50 ppm (Ctenocephalides felis [1]; 24 h, Rep1): 100% | mortality at 50 ppm (Ctenocephalides felis [1]; 24 h, Rep2): 100% | mortality at 0.003 ppm (Ctenocephalides felis [1]; 48 h, Rep1): 0% | mortality at 0.003 ppm (Ctenocephalides felis [1]; 48 h, Rep2): 0% | mortality at 0.012 ppm (Ctenocephalides felis [1]; 48 h, Rep1): 0% | mortality at 0.012 ppm (Ctenocephalides felis [1]; 48 h, Rep2): 0% | mortality at 0.049 ppm (Ctenocephalides felis [1]; 48 h, Rep1): 20% | mortality at 0.049 ppm (Ctenocephalides felis [1]; 48 h, Rep2): 20% | mortality at 0.2 ppm (Ctenocephalides felis [1]; 48 h, Rep1): 30% | mortality at 0.2 ppm (Ctenocephalides felis [1]; 48 h, Rep2): 70% | mortality at 0.78 ppm (Ctenocephalides felis [1]; 48 h, Rep1): 100% | mortality at 0.78 ppm (Ctenocephalides felis [1]; 48 h, Rep2): 90% | mortality at 3.125 ppm (Ctenocephalides felis [1]; 48 h, Rep1): 100% | mortality at 3.125 ppm (Ctenocephalides felis [1]; 48 h, Rep2): 100% | mortality at 12.5 ppm (Ctenocephalides felis [1]; 48 h, Rep1): 100% | mortality at 12.5 ppm (Ctenocephalides felis [1]; 48 h, Rep2): 100% | mortality at 50 ppm (Ctenocephalides felis [1]; 48 h, Rep1): 100% | mortality at 50 ppm (Ctenocephalides felis [1]; 48 h, Rep2): 100% | mortality at 0.006 ppm (Ctenocephalides felis [2]; 6 h, Rep1): 0% | mortality at 0.006 ppm (Ctenocephalides felis [2]; 6 h, Rep2): 0% | mortality at 0.024 ppm (Ctenocephalides felis [2]; 6 h, Rep1): 0% | mortality at 0.024 ppm (Ctenocephalides felis [2]; 6 h, Rep2): 0% | mortality at 0.098 ppm (Ctenocephalides felis [2]; 6 h, Rep1): 0% | mortality at 0.098 ppm (Ctenocephalides felis [2]; 6 h, Rep2): 0% | mortality at 0.39 ppm (Ctenocephalides felis [2]; 6 h, Rep1): 0% | mortality at 0.39 ppm (Ctenocephalides felis [2]; 6 h, Rep2): 0% | mortality at 1.56 ppm (Ctenocephalides felis [2]; 6 h, Rep1): 0% | mortality at 1.56 ppm (Ctenocephalides felis [2]; 6 h, Rep2): 0% | mortality at 6.25 ppm (Ctenocephalides felis [2]; 6 h, Rep1): 0% | mortality at 6.25 ppm (Ctenocephalides felis [2]; 6 h, Rep2): 0% | mortality at 25 ppm (Ctenocephalides felis [2]; 6 h, Rep1): 0% | mortality at 25 ppm (Ctenocephalides felis [2]; 6 h, Rep2): 0% | mortality at 100 ppm (Ctenocephalides felis [2]; 6 h, Rep1): 0% | mortality at 100 ppm (Ctenocephalides felis [2]; 6 h, Rep2): 0% | mortality at 0.006 ppm (Ctenocephalides felis [2]; 24 h, Rep1): 0% | mortality at 0.006 ppm (Ctenocephalides felis [2]; 24 h, Rep2): 0% | mortality at 0.024 ppm (Ctenocephalides felis [2]; 24 h, Rep1): 0% | mortality at 0.024 ppm (Ctenocephalides felis [2]; 24 h, Rep2): 0% | mortality at 0.098 ppm (Ctenocephalides felis [2]; 24 h, Rep1): 0% | mortality at 0.098 ppm (Ctenocephalides felis [2]; 24 h, Rep2): 0% | mortality at 0.39 ppm (Ctenocephalides felis [2]; 24 h, Rep1): 0% | mortality at 0.39 ppm (Ctenocephalides felis [2]; 24 h, Rep2): 0% | mortality at 1.56 ppm (Ctenocephalides felis [2]; 24 h, Rep1): 0% | mortality at 1.56 ppm (Ctenocephalides felis [2]; 24 h, Rep2): 0% | mortality at 6.25 ppm (Ctenocephalides felis [2]; 24 h, Rep1): 10% | mortality at 6.25 ppm (Ctenocephalides felis [2]; 24 h, Rep2): 10% | mortality at 25 ppm (Ctenocephalides felis [2]; 24 h, Rep1): 30% | mortality at 25 ppm (Ctenocephalides felis [2]; 24 h, Rep2): 20% | mortality at 100 ppm (Ctenocephalides felis [2]; 24 h, Rep1): 100% | mortality at 100 ppm (Ctenocephalides felis [2]; 24 h, Rep2): 100% | mortality at 0.006 ppm (Ctenocephalides felis [2]; 48 h, Rep1): 0% | mortality at 0.006 ppm (Ctenocephalides felis [2]; 48 h, Rep2): 0% | mortality at 0.024 ppm (Ctenocephalides felis [2]; 48 h, Rep1): 0% | mortality at 0.024 ppm (Ctenocephalides felis [2]; 48 h, Rep2): 0% | mortality at 0.098 ppm (Ctenocephalides felis [2]; 48 h, Rep1): 10% | mortality at 0.098 ppm (Ctenocephalides felis [2]; 48 h, Rep2): 10% | mortality at 0.39 ppm (Ctenocephalides felis [2]; 48 h, Rep1): 10% | mortality at 0.39 ppm (Ctenocephalides felis [2]; 48 h, Rep2): 0% | mortality at 1.56 ppm (Ctenocephalides felis [2]; 48 h, Rep1): 10% | mortality at 1.56 ppm (Ctenocephalides felis [2]; 48 h, Rep2): 30% | mortality at 6.25 ppm (Ctenocephalides felis [2]; 48 h, Rep1): 70% | mortality at 6.25 ppm (Ctenocephalides felis [2]; 48 h, Rep2): 30% | mortality at 25 ppm (Ctenocephalides felis [2]; 48 h, Rep1): 100% | mortality at 25 ppm (Ctenocephalides felis [2]; 48 h, Rep2): 100% | mortality at 100 ppm (Ctenocephalides felis [2]; 48 h, Rep1): 100% | mortality at 100 ppm (Ctenocephalides felis [2]; 48 h, Rep2): 100%
